The values below come from patent publication US20100056515A1, “BENZIMIDAZOLE COMPOUNDS” (priority 2006, published 2010).

For orientation: IC50 means the midpoint of a concentration-inhibition curve. In general, melting point refers to the temperature, or range, at which the solid turns liquid.

One data set deals with T1, human CRF receptor (Homo sapiens, UniProt P34998).
T1 construct: expressed in transfected cells; host or cells: CHO cells (membrane fraction)
T1 sequence (P34998 24-415): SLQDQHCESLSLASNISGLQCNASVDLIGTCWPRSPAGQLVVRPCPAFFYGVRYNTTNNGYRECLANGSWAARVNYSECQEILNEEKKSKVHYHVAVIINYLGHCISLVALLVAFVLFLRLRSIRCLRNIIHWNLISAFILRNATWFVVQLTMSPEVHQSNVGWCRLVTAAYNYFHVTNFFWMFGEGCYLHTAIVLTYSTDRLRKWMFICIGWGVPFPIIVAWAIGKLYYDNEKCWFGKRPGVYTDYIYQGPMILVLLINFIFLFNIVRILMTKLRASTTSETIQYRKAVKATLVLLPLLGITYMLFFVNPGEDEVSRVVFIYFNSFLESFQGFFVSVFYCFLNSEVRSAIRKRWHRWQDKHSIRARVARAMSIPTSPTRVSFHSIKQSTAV
As to the kind of experiment: Measurement of CRF Binding Inhibitory Rate (receptor binding experiment with 125I-CRF). The settings on record: human CRF receptor expressing CHO cellular membrane fraction; 50 pM ovine 125I-CRF; 0.05 nM to 10 μM of compound; room temperature 1.5 hr; read-out: IC50 values (CRF binding inhibition). The procedure:
Measurement of CRF Binding Inhibitory Rate
A receptor binding experiment was carried out using a human CRF receptor expressing CHO cellular membrane fraction and ovine CRF, [^125I]-tyr^0(^125I-CRF). 1000 nM of a test compound was incubated with 1 μg of human CRF receptor expressing CHO cellular membrane fraction and 50 pM of ^125I-CRF in a binding assay buffer (50 mM Tris-HCl, 5 mM EDTA, 10 mM MgCl2, 0.05% CHAPS, 0.1% BSA, 0.5 mM PMSF, 0.1 μg/mL pepstatin, 20 μg/mL leupeptin, pH 7.5). In addition, for measuring nonspecific binding (NSB), 0.1 μM unlabelled human Urocortin was incubated with 5 μg of human CRF receptor expressing CHO cellular membrane fraction and 50 pM of ^125I-CRF in a binding assay buffer. After a binding reaction was carried out at room temperature for 1.5 hr, the membrane was entrapped on a glass filter (UniFilter plate GF-C/Perkin Elmer) by suction filtration using a cell harvester (Perkin Elmer), and washed with ice-cooled 50 mM Tris-HCl (pH 7.5). After drying the glass filter, a liquid scintillation cocktail (Microscinti 0, Perkin Elmer) was added, and the radioactivity of ^125I-CRF remaining on a glass filter was measured using Topcount (Perkin Elmer).
(TB-SB)/(TB-NSB)×100 (SB: radioactivity when a compound is added, TB: maximum binding radioactivity, NSB: nonspecific binding radioactivity) were calculated to obtain binding inhibitory rates under the range of the presence from 0.05 nM to 10 μM of each compounds. The IC50 values were calculated by using GraphPad Prism software.

Each structure is given as a SMILES string.

In turn, `CCC(CC)c1ccc(Cl)c2nc(Oc3c(C)cc(SC)cc3Cl)n(C)c12` [Example 36, 4-Chloro-2-[2-chloro-6-methyl-4-(methylthio)phenoxy]-7-(1-ethylpropyl)-1-methyl-1H-benzimidazole] displayed a melting point of 141 to 143 °C. The IC50 on human CRF receptor is under 1000 nM.
With `CCC(CC)c1ccc(Cl)c2nc(Nc3c(C)cc(Cl)cc3SC)n(C)c12` [Example 50, 4-Chloro-N-[4-chloro-2-methyl-6-(methylthio)phenyl]-7-(1-ethylpropyl)-1-methyl-1H-benzimidazol-2-amine], the melting point is 167 to 169 °C. For the same compound, the IC50 at human CRF receptor was under 1000 nM.
As to `CCC(CC)c1ccc(Cl)c2nc(Oc3c(Cl)cc(Cl)cc3CN3CCCC3)n(C)c12` [Example 78, 4-Chloro-2-[2,4-dichloro-6-(pyrrolidin-1-ylmethyl)phenoxy]-7-(1-ethylpropyl)-1-methyl-1H-benzimidazole], the melting point lay in the range of 122 to 123 °C. On human CRF receptor, the half-inhibitory concentration (IC50) was under 1000 nM.
Taken in the same sequence, the figures for `CCC(CC)c1ccc(Cl)c2nc(Oc3c(Cl)cc(Cl)cc3S(N)(=O)=O)n(C)c12` [Example 32, 3,5-Dichloro-2-{[4-chloro-7-(1-ethylpropyl)-1-methyl-1H-5 benzimidazol-2-yl]oxy}benzenesulfonamide] were 133 to 134 °C and under 1000 nM.
Taken in the same sequence, the figures for `CCC(CC)c1ccc(Cl)c2nc(Oc3c(Cl)cc(OC(F)(F)F)cc3[S+](C)[O-])n(C)c12` (stereo not drawn) [Example 43, 4-Chloro-2-[2-chloro-6-(methylsulfinyl)-4-(trifluoromethoxy)phenoxy]-7-(1-ethylpropyl)-1-methyl-1H-benzimidazole] were 150 to 151 °C and under 1000 nM.
Consider `CCC(CC)c1ccc(OC)c2nc(Oc3c(Cl)cc(Cl)cc3CN3CCCC3C)n(C)c12.Cl` (stereo not drawn) [Example 80, 2-{2,4-Dichloro-6-[(2-methylpyrrolidin-1-yl)methyl]phenoxy}-7-(1-ethylpropyl)-4-methoxy-1-methyl-1H-benzimidazole], for which the melting point lay in the range of 171 to 173 °C. In addition, the IC50 on human CRF receptor is under 1000 nM.
Regarding `CCC(CC)c1ccc(Cl)c2nc(Oc3c(Cl)cc(Cl)cc3N3CCOCC3)n(C)c12` [Example 25, 4-Chloro-2-(2,4-dichloro-6-morpholin-4-ylphenoxy)-7-(1-ethylpropyl)-1-methyl-1H-benzimidazole], the melting point lay within 155 to 157 °C. The IC50 on human CRF receptor was under 1000 nM.
Turning to `CCC(CC)c1ccc(OC)c2nc(Oc3ccc(C)nc3N(C)C)n(C)c12` [Example 5, 3-{[7-(1-Ethylpropyl)-4-methoxy-1-methyl-1H-benzimidazol-2-yl]oxy}-N,N,6-trimethylpyridin-2-amine], the melting point was in the range of 143 to 144 °C. In addition, the IC50 on human CRF receptor is under 1000 nM.
Consider `CCC(CC)c1ccc(Cl)c2nc(Oc3c(Cl)cc(Cl)cc3N(C)C)n(C)c12` [Example 24, 3,5-Dichloro-2-{[4-chloro-7-(1-ethylpropyl)-1-methyl-1H-benzimidazol-2-yl]oxy}-N,N-dimethylaniline], for which the melting point lay within 172 to 173 °C. Also, the IC50 at human CRF receptor is under 1000 nM.
For the compound `CCC(CC)c1ccc(Cl)c2nc(Oc3c(Cl)cc(OC(F)(F)F)cc3SC)n(C)c12` [Example 42, 4-Chloro-2-[2-chloro-6-(methylthio)-4-(trifluoromethoxy)phenoxy]-7-(1-ethylpropyl)-1-methyl-1H-benzimidazole], the melting point lay in the range of 138 to 139 °C. Moreover, the IC50 at human CRF receptor was under 1000 nM.
Turning to `CCC(CC)c1ccc(OC)c2nc(Oc3ccc(Cl)cc3N(C)C)n(C)c12` [Example 4, 5-Chloro-2-{[7-(1-ethylpropyl)-4-methoxy-1-methyl-1H-benzimidazol-2-yl]oxy}-N,N-dimethylaniline], the melting point was in the range of 122 to 123 °C. The IC50 on human CRF receptor was under 1000 nM.
As to `CCC(CC)c1ccc(Cl)c2nc(Oc3c(Br)cc(Br)nc3C)n(C)c12` [Example 74, 4-Chloro-2-[(4,6-dibromo-2-methylpyridin-3-yl)oxy]-7-(1-ethylpropyl)-1-methyl-1H-benzimidazole], the melting point lay in the range of 202 to 203 °C. The IC50 at human CRF receptor is under 1000 nM.
`CCC(CC)c1ccc(Cl)c2nc(Oc3c(OC)cc(C)nc3N(C)C)n(C)c12` [Example 52, 3-{[4-Chloro-7-(1-ethylpropyl)-1-methyl-1H-benzimidazol-2-yl]oxy}-4-methoxy-N,N,6-trimethylpyridin-2-amine] showed a melting point of 202 to 203 °C. In addition, the IC50 on human CRF receptor is under 1000 nM.
Compound `CCC(CC)c1ccc(OC)c2nc(Oc3ccc(N(C)C)cc3Cl)n(C)c12` [Example 3, 3-Chloro-4-{[7-(1-ethylpropyl)-4-methoxy-1-methyl-1H-benzimidazol-2-yl]oxy}-N,N-dimethylaniline] yielded a melting point of 122 to 123 °C. The IC50 on human CRF receptor is under 1000 nM.
Take `CCC(CC)c1ccc(OC)c2nc(Oc3ccc(OC(F)(F)F)cc3N(C)C)n(C)c12` [Example 30, 2-{[7-(1-Ethylpropyl)-4-methoxy-1-methyl-1H-benzimidazol-2-yl]oxy}-N,N-dimethyl-5-(trifluoromethoxy)aniline]: the melting point is 93 to 95 °C. Moreover, on human CRF receptor, the IC50 is under 1000 nM.
On to `CCC(CC)c1ccc(Cl)c2nc(Oc3c(Cl)cc(Cl)cc3CN(C)C)n(C)c12` [Example 86, 1-(3,5-Dichloro-2-{[4-chloro-7-(1-ethylpropyl)-1-methyl-1H-1-benzimidazol-2-yl]oxy}phenyl)-N,N-dimethylmethanamine], for which the melting point was 149 to 151 °C. At human CRF receptor, the IC50 is under 1000 nM.
`CCC(CC)c1ccc(Cl)c2nc(Oc3c(C)cc(S(N)(=O)=O)cc3Cl)n(C)c12` [Example 40, 3-Chloro-4-{[4-chloro-7-(1-ethylpropyl)-1-methyl-1H-benzimidazol-2-yl]oxy}-5-methylbenzenesulfonamide]: the melting point lay in the range of 293 to 294 °C. In addition, the IC50 on human CRF receptor was under 1000 nM.
For the compound `CCC(CC)c1ccc(OC)c2nc(Oc3nn(C)c(C)c3C)n(C)c12` [Example 14, 7-(1-Ethylpropyl)-4-methoxy-1-methyl-2-[(1,4,5-trimethyl-1H-pyrazol-3-yl)oxy]-1H-benzimidazole], the 50% inhibitory concentration (IC50) on human CRF receptor is under 1000 nM.
Still for that read-out and setting: under `CCC(c1cccc2nc(Nc3c(C)cc(Cl)cc3OC)n(C)c12)N(C)C` (stereo not drawn) [Example 62, N-(4-Chloro-2-methoxy-6-methylphenyl)-7-[1-(dimethylamino)propyl]-1-methyl-1H-benzimidazol-2-amine] stands under 1000 nM.
As to `CCC(CC)c1ccc(Cl)c2nc(Oc3c(C(F)(F)F)cc(C(F)(F)F)nc3C)n(C)c12` [Example 76, 4-Chloro-7-(1-ethylpropyl)-1-methyl-2-{[2-methyl-4,6-bis(trifluoromethyl)pyridin-3-yl]oxy}-1H-benzimidazole], the IC50 on human CRF receptor is under 1000 nM.
Take `CCC(CC)c1ccc(Cl)c2nc(Oc3c(C)cc(OC(F)(F)F)cc3CN(C)C)n(C)c12` [Example 84, 1-[2-{[4-Chloro-7-(1-ethylpropyl)-1-methyl-1H-benzimidazol-2-yl]oxy}-3-methyl-5-(trifluoromethoxy)phenyl]-N,N-dimethylmethanamine]: the IC50 on human CRF receptor is under 1000 nM.
With `CCC(CC)c1ccc(Cl)c2nc(Oc3c(Br)cc(C(F)(F)F)nc3C)n(C)c12` [Example 75, 2-{[4-Bromo-2-methyl-6-(trifluoromethyl)pyridin-3-yl]oxy}-4-chloro-7-(1-ethylpropyl)-1-methyl-1H-benzimidazole], the IC50 at human CRF receptor is under 1000 nM.
